PMC12609600, “Novel Halolactones Derived from Vanillin: Design, Synthesis, Structural Characterization, and Evaluation of Antiproliferative and Hemolytic Activities” (Molecules, 2025)
Converted amounts (≈) assume the structure as drawn. Where two headings read alike, the source gives them in different places.

Columns and labels:
[1] = tested on: CLBL-1 cell line (canine B-cell lymphoma); experiment: MTT assay, antiproliferative activity against CLBL-1; format: cell-based; details: for IC50: Canis lupus familiaris, CLBL-1, 72 h of exposure, MTT, mean ± SD; for SI CLBL-1: ratio IC50 NIH/3T3 / IC50 CLBL-1
From the text: (§1) The CLB70 cell line (canine chronic B-cell lymphocytic leukemia) was established at the Department of Pharmacology and Toxicology, Wrocław University of Environmental and Life Sciences. The CLBL-1 cell line (canine B-cell lymphoma) was kindly provided by Dr. Barbara C. Rütgen from the Institute of Immunology, Department of Pathobiology, University of Veterinary Medicine, Vienna. The T-24 (human bladder carcinoma), Caco-2 (human colorectal adenocarcinoma), and NIH/3T3 (mouse embryonic fibroblasts) cell lines were purchased from the American Type Culture Collection (ATCC, Rockville, MD, USA).
(§2) Cell cultures were maintained in their respective growth media, with fetal bovine serum (FBS) concentrations ranging from 10% to 20%, depending on the cell line. Penicillin-streptomycin (PS) and L-glutamine (L-Glu) were consistently added at 1% each to all media. CLB70 cells were cultured in RPMI ADVANCE medium supplemented with 20% FBS, while CLBL-1 cells were maintained in RPMI-1640 medium with 20% FBS. T-24 cells were cultured in McCoy′s 5A medium with 10% FBS, and Caco-2 cells in Eagle′s Minimum Essential Medium (EMEM) with 20% FBS. NIH/3T3 cells were maintained in high-glucose DMEM (DMEM HG) with 10% FBS. All cell cultures were grown in T-75 flasks under a humidified atmosphere at 37 °C and 5% CO2 and passaged every 3 days to maintain optimal cell density (70–80% confluence).
(§3) Stock solutions used in the experiments were freshly prepared for each trial by dissolving the tested compounds in biological-grade DMSO. These stock solutions were then diluted with the culture medium appropriate for each specific cell line to achieve the desired final concentrations, which ranged from 3.125 to 100 µM. The final DMSO concentration in each well was maintained below 1%, a level generally considered non-toxic to cells. The MTT assay was employed to evaluate the antiproliferative and cytotoxic effects of the compounds on cancer cell lines, following a previously described protocol with minor modifications. Cells were seeded in 96-well plates at the following densities: 1.5 × 10^4 cells/mL (NIH/3T3), 2 × 10^4 cells/mL (T-24, Caco-2), and 3 × 10^5 cells/mL (CLB70, CLBL-1). Each plate included control wells with untreated cells and wells with vehicle controls (culture medium specific to each cell line).
(§4) After 72 h of treatment with the tested compounds, 10 µL of 3-(4,5-dimethylthiazol-2-yl)-2,5-diphenyltetrazolium bromide (MTT) solution (5 mg/mL) was added to each well. The cells were subsequently incubated with MTT for an additional 3 h to allow the formation of formazan crystals. Following this, 40 µL of lysis buffer (composed of 46 g sodium dodecyl sulfate, 150 mL dimethylformamide, and 183.2 mL Milli-Q water) was added to each well to dissolve the formazan. After a 24 h incubation at room temperature, the optical density (OD) of the resulting formazan product was measured using a spectrophotometric microplate reader (Spark, Tecan, Männedorf, Switzerland) at 570 nm.
(§5) The results were determined from three independent experiments (four wells each) and presented as mean IC50 value ± SD from at least […], each performed in quadruplicate. IC50 values (the concentration of the compound required to inhibit 50% of cell growth) were calculated from dose–response curves.

[2] = tested on: CLB70 cell line (canine chronic B-cell lymphocytic leukemia); experiment: MTT assay, antiproliferative activity against CLB70; format: cell-based; details: for IC50: Canis lupus familiaris, CLB70, 72 h of exposure, MTT, mean ± SD; for SI CLB70: ratio IC50 NIH/3T3 / IC50 CLB70
From the text: as §1, §2, §3, §4, §5

[3] = tested on: T-24 (human bladder carcinoma); experiment: MTT assay, antiproliferative activity against T-24; format: cell-based; details: for antiproliferative activity against T-24 (in words): 72 h, up to 100 µM; for antiproliferative activity against T-24 (in words) / IC50: MTT; for IC50: Homo sapiens, 72 h of exposure, mean ± SD; for SI T-24: ratio IC50 NIH/3T3 / IC50 T-24
From the text: as §1, §2, §3, §4, §5

[4] = tested on: CaCo-2 (human colorectal adenocarcinoma); experiment: MTT assay, antiproliferative activity against CaCo-2; format: cell-based; details: for antiproliferative activity against CaCo-2 (in words): 72 h, up to 100 µM; for antiproliferative activity against CaCo-2 (in words) / IC50: MTT; for IC50: Homo sapiens, Caco-2, 72 h of exposure, mean ± SD; for SI CaCo-2: ratio IC50 NIH/3T3 / IC50 CaCo-2
From the text: as §1, §2, §3, §4, §5

[5] = tested on: NIH/3T3 (mouse embryonic fibroblasts); experiment: MTT assay, normal cell line NIH/3T3; format: cell-based; details: NIH3T3, 72 h of exposure
From the text: as §1, §2, §3, §4, §5

[6] = Quantitative hemolysis assay on red blood cells; format: cell-based; details: human, pH 7.4; 72 h incubation, highest concentration (200 μM)
Experimental: To evaluate the hemolytic activity and cytotoxicity of the tested compounds, a quantitative hemolysis assay was conducted using human red blood cells (RBCs), following the method described by Pruchnik et al., with minor modifications.
RBCs were obtained from healthy donors through the Blood Donation Center in Wrocław. […] The collected RBCs were gently resuspended and washed three times with cold isotonic phosphate-buffered saline (PBS, pH 7.4) to remove plasma and cellular debris.
All tested compounds were dissolved in biological-grade DMSO. A series of working solutions was prepared by diluting the stock solutions to final concentrations of 6.25, 12.50, 25, 50, 100, and 200 μM. […] Control samples contained no tested compounds, while vehicle control samples contained DMSO at the same concentration as the treated samples. Positive control samples (A100%) were prepared by inducing complete hemolysis with Milli-Q water. All experiments were performed in triplicate, with three independent replicates for each condition.
The erythrocyte suspension was adjusted to a final hematocrit of 1.2% in all test tubes, with a total sample volume of 1 mL. Samples were incubated at 37 °C under static conditions for 2, 24, and 72 h to assess both short- and long-term cytotoxic effects.
Following incubation, all samples were centrifuged at 5000 rpm for 3 min at room temperature. The supernatants were carefully transferred to a 96-well plate, and the absorbance of free hemoglobin was measured at 540 nm using a UV-Vis microplate spectrophotometer (EPOCH, BioTek, Santa Clara, CA, USA). The degree of in vitro hemolysis was calculated based on the amount of released hemoglobin relative to that in the completely hemolyzed positive control sample, according to the following formula: H[%]=As/A100%×100%, where H [%] is the percentage of erythrocyte hemolysis, As is absorbance of hemoglobin in supernatant at 540 nm, and A100% refers to the absorbance of hemoglobin in the supernatant following complete hemolysis of the erythrocytes.

[7] = tested on: CLB-70 line; details: cited from earlier work
[8] = tested on: T-24 cell line; parameters: method as in earlier work; details: 48 h of incubation; cited from earlier work
[9] = tested on: Caco-2 line; parameters: method as in PMID 33198146; details: 48 h of incubation; cited from earlier work
[10] = tested on: CLBL-1; details: 72 h of incubation; cited from earlier work

Compound	IC50 [1]	IC50 [2]	IC50 [3]	IC50 [4]	SI CLBL-1 [1]	SI CLB70 [2]	antiproliferative activity against T-24 (in words) [3]	antiproliferative activity against CaCo-2 (in words) [4]	SI CaCo-2 [4]	IC50 [5]	hemolysis at 72 h, 200 µM [6]	SI T-24 [3]	IC50 ([7]; previously studied analog, reference not given, read-out: IC50 CLB70)	IC50 [8]	IC50 ([7]; 48 h of incubation)	IC50 Caco-2 [9]	IC50 [10]
COc1cc([C@@H]2CC(=O)O[C@@H]2C(C)I)ccc1O (relative stereo) [10a, Cis-4-(4′-Hydroxy-3′-methoxyphenyl)-5-(1-iodoethyl)dihydrofuran-2-one]	73.6 ± 8.8 µM	69.7 ± 13.7 µM	98.1 ± 10.4 µM	> 100 µM	>1.4	>1.4	demonstrated activity	–	–	> 100 µM	–	>1.0	–	–	–	–	–
COc1cc([C@@H]2CC(=O)O[C@H]2C(C)I)ccc1O (relative stereo) [10b, Trans-4-(4′-Hydroxy-3′-methoxyphenyl)-5-(1-iodoethyl)dihydrofuran-2-one]	46.3 ± 4.1 µM	71.5 ± 7.5 µM	63.4 ± 6.2 µM	> 100 µM	>2.2	>1.4	demonstrated activity	–	–	> 100 µM	11%	>1.6	–	–	–	–	–
COc1cc([C@@H]2CC(=O)O[C@@H]2C(C)Br)ccc1O (relative stereo) [11a, Cis-5-(1-Bromoethyl)-4-(4′-hydroxy-3′-methoxyphenyl)dihydrofuran-2-one]	63.2 ± 1.6 µM	76.2 ± 5.3 µM	> 100 µM	76.4 ± 10 µM	>1.6	>1.3	inactive	moderate activity	>1.3	> 100 µM	10.3%	–	–	–	–	–	–
Cc1ccc(C)c([C@H]2CC(=O)O[C@@H](C)[C@@H]2Br)c1 (single isomer, unassigned)	–	–	–	–	–	–	–	–	–	–	–	–	106 µM	–	–	–	–
COc1cc(C=O)ccc1O [compound 1, Vanillin]	72.4 ± 9.4 µM	72.8 ± 2.3 µM	48.5 ± 13.2 µM	> 100 µM	>1.4 ^2	>1.4	–	inactive	–	> 100 µM	–	>2.1	–	–	–	–	–
COc1cccc2c1C(=O)c1c(O)c3c(c(O)c1C2=O)C[C@@](O)(C(=O)CO)C[C@@H]3O[C@H]1C[C@H](N)[C@H](O)[C@H](C)O1 [doxorubicin]	–	–	–	–	–	–	–	–	–	–	–	–	–	60 nM	0.07 µM	2.41 µg/mL (≈ 4.43 µM)	< 90 nM

Further lines, with some results ahead:

IC50 [1]	IC50 [2]	IC50 [3]	IC50 [4]	Compound	SI CLBL-1 [1]	SI CLB70 [2]	antiproliferative activity against T-24 (in words) [3]	antiproliferative activity against CaCo-2 (in words) [4]	SI CaCo-2 [4]	IC50 [5]	hemolysis at 72 h, 200 µM [6]	SI T-24 [3]	IC50 ([7]; previously studied analog, reference not given, read-out: IC50 CLB70)	IC50 [8]	IC50 ([7]; 48 h of incubation)	IC50 Caco-2 [9]	IC50 [10]
85.7 ± 15.7 µM	71.2 ± 11.6 µM	> 100 µM	72.5 ± 19.8 µM	COc1cc([C@H]2CC(=O)O[C@@H](C)[C@@H]2Cl)ccc1O (racemic) [12b, 5-t-Chloro-4-r-(4′-Hydroxy-3′-methoxyphenyl)-6-c-methyltetrahydropyran-2-one]	>1.2	>1.4	inactive	moderate activity	>1.4	> 100 µM	10.5%	–	–	–	–	–	–
76.7 ± 11.5 µM	75.2 ± 6.3 µM	> 100 µM	88.1 ± 4.4 µM	COc1cc([C@@H]2CC(=O)O[C@@H]2C(C)Cl)ccc1O (relative stereo) [12a, Cis-5-(1-Chloroethyl)-4-(4′-hydroxy-3′-methoxyphenyl)dihydrofuran-2-one]	>1.3	>1.3	inactive	moderate activity	>1.1	> 100 µM	–	–	–	–	–	–	–
